Experimental findings from patent US5849735A, “Tricyclic benzazepine vasopressin antagonists” (American Cyanamid Company, priority 1995, dated 1998) are described below.

The assay has as its system vasopressin V2. The assay can be described thus: Vasopressin Antidiuretic (V2) Response in Conscious Rats with Free Access to Water Drinking Before But Not During the Experiment. The following applies: N=2. Format: in vivo, rat (Sprague-Dawley). The source says:
Vasopressin Antidiuretic (V2) Response in Conscious Rats with Free Access to Water Drinking Before But Not During the Experiment Male or female normotensive Sprague-Dawley rats (Charles River Laboratories, Inc., Kingston, N.Y.) of 400-450 g of body weight were supplied with Laboratory Rodent Feed #5001 (PMI Feeds, Inc., Richmond, Ind.) and water ad libitum. On the day of test, rats were placed individually into metabolic cages equipped with stainless steel screens (to separate the feces from the urine) and funnels for collection of urine. Compounds, vehicle, or reference agent was given at various oral doses. During the test, rats were provided with no water or food. After dosing, urine was collected in graduated cylinders for four hours. Urine volume was measured. Urinary osmolality was determined using a Fiske One-Ten Osmometer (Fiske Associates, Norwood, Mass. 02062). An aliquot of each urine collection was analyzed for Na^+,K^+ and Cl^- using ion specific electrodes a in Beckman E3 (Electrolyte 3) analyzer. The vehicle used for testing compounds was 20% dimethylsulfoxide (DMSO) in 2.5% preboiled starch. Compounds were dissolved in DMSO and then diluted in 2.5% corn starch (final concentration of DMSO was 20%). All rats were orally dosed with this mixture at […], by gavage.

SMILES strings stand for the structures.

For the compound `O=C(Nc1ccc(C(=O)N2Cc3ccccc3Oc3ccccc32)c(Cl)c1)c1ccccc1-c1ccccc1` [Example 47, N-[4-(Dibenz[b,f][1,4]oxazepin-10(11H)-ylcarbonyl)-3-chlorophenyl][1,1'biphenyl]-2-carboxamide], for the setting “oral 10 mg/kg”, the Osmolality is on record as 394 MOsm/kg and the “Urine Volume” value came to 22.0 ml/4 hrs.

Regarding `O=C(Nc1ccc(C(=O)N2Cc3cccnc3Oc3ccccc32)cn1)c1ccccc1-c1ccccc1` [Example 66, N-[5-(Pyrido[2,3-b][1,5]benzoxazepin-6(5H)-ylcarbonyl)-2-pyridinyl][1,1'biphenyl]-2-carboxamide], for the setting “oral 10 mg/kg”, the Osmolality is 442 MOsm/kg and the “Urine Volume” value is on record as 17.0 ml/4 hrs.

Turning to `O=C(Nc1ccc(C(=O)N2Cc3cccnc3Oc3ccccc32)c(Cl)c1)c1ccccc1-c1ccccc1` [Example 67, N-[4-(Pyrido[2,3-b][1,5]benzoxazepin-6(5H)-ylcarbonyl)-3-chlorophenyl][1,1'-biphenyl]-2-carboxamide], where the note is “oral 10 mg/kg”, the Osmolality was 402 MOsm/kg and the “Urine Volume” value is recorded as 21.5 ml/4 hrs.

As for `O=C(Nc1ccc(C(=O)N2Cc3cccnc3Nc3ccccc32)cc1)c1ccccc1-c1ccccc1` [Example 133, N-[4-(6,11-Dihydropyrido[2,3-b][1,5]benzodiazepin-6(5H)-ylcarbonyl)-phenyl][1.1'-biphenyl]-2-carboxamide], where the note is “oral 10 mg/kg”, the Osmolality stood at 234 MOsm/kg and the “Urine Volume” value amounted to 27.5 ml/4 hrs.

As to `O=C(Nc1ccc(C(=O)N2Cc3cccnc3Nc3ccccc32)c(Cl)c1)c1ccccc1-c1ccccc1` [Example 134, N-[4-(6,11-Dihydropyrido[2,3-b][1,5]benzodiazepin-6(5H)-ylcarbonyl)-3-chlorophenyl][1,1'-biphenyl]-2-carboxamide], the Osmolality (oral 1 mg/kg) was 596 MOsm/kg, the Osmolality (oral 3 mg/kg) turned out to be 396 MOsm/kg and the Osmolality (oral 10 mg/kg) worked out at 333 MOsm/kg. Moreover, the “Urine Volume” value was found to be 18.2 ml/4 hrs (oral 1 mg/kg), 28 ml/4 hrs (oral 3 mg/kg) and 40.5 ml/4 hrs (oral 10 mg/kg).

Regarding `Cl.O=C(Nc1ccc(C(=O)N2Cc3cccnc3Nc3ccccc32)cc1)c1ccccc1-c1ccccc1` [Example 135, N-[4-(6,11-Dihydropyrido[2,3-b][1,5]benzodiazepin-6(5H)-ylcarbonyl)-phenyl][1,1'-biphenyl]-2-carboxamide, hydrochloride], the Osmolality reads like this: (oral 1 mg/kg) 526 MOsm/kg; (oral 3 mg/kg) 391 MOsm/kg; (oral 10 mg/kg) 284 MOsm/kg. Further, the “Urine Volume” value was determined as 19.5 ml/4 hrs (oral 1 mg/kg), 26.8 ml/4 hrs (oral 3 mg/kg) and 39.5 ml/4 hrs (oral 10 mg/kg).

On to `O=C(Nc1ccc(C(=O)N2Cc3cccnc3Nc3ccccc32)cn1)c1ccccc1-c1ccccc1` [Example 176, N-[5-(6,11-Dihydropyrido[2,3-b][1,5]benzodiazepin-6(5H)-ylcarbonyl)-2-pyridinyl][1,1'-biphenyl]-2-carboxamide], for which, where the note is “oral 10 mg/kg”, the Osmolality worked out at 567 MOsm/kg and the “Urine Volume” value is recorded as 12.8 ml/4 hrs.

`O=C(Nc1ccc(C(=O)N2Cc3ccccc3Nc3ccccc32)c(Cl)c1)c1ccccc1-c1ccccc1` [Example 218, N-[4-[(5,11-Dihydro-10H-dibenz[b,e][1,4]diazepin-10-yl)carbonyl]-3-chlorophenyl][1,1'-biphenyl]-2-carboxamide]: for the setting “oral 10 mg/kg”, the Osmolality is on record as 222 MOsm/kg and the “Urine Volume” value is on record as 34 ml/4 hrs.

With `O=C(Nc1ccc(C(=O)N2Cc3ccccc3Nc3ccccc32)cn1)c1ccccc1-c1ccccc1` [Example 257, N-[5-[(5,11-Dihydro-10H-dibenz[b,e][1,4]diazepin-10-yl)carbonyl]-2-pyridinyl][1,1'-biphenyl]-2-carboxamide], where the note is “oral 10 mg/kg”, the Osmolality stood at 317 MOsm/kg and the “Urine Volume” value was determined as 22.5 ml/4 hrs.

For the compound `O=C(Nc1ccc(C(=O)N2Cc3ccccc3Cc3ccccc32)cc1)c1ccccc1-c1ccccc1` [Example 301, N-[4-[(6,11-Dihydro-5H-dibenz[b,e]azepin-5-yl)carbonyl]-phenyl][1,1'-biphenyl]-2-carboxamide], for the setting “oral 10 mg/kg”, the Osmolality worked out at 363 MOsm/kg and the “Urine Volume” value was 41.5 ml/4 hrs.
